Experiment [1] concerns the target Angiotensin II receptor (Rattus norvegicus) (UniProt P29089+P25095+P35351). Kind of experiment: Inhibition of pressor response induced by Angiotensin II in Alderley Park Wistar rats after single intravenous dose. The experiment is classed as functional.
Experiment [2] concerns the target angiotensin II receptor (Cavia porcellus). Kind of experiment: Displacement of monoiodinated angiotensin II from guinea-pig adrenal gland angiotensin II receptor.

Turning to `CCCCc1nc2c(=O)[nH][nH]c(=O)c2n1Cc1ccc(-c2ccccc2-c2nn[nH]n2)cc1`, it took a dose of 0.04 mg/kg to reach the 50% effect level in experiment [1] (ED50).
`CCCCc1nc2ccccc2n1Cc1ccc(-c2ccccc2-c2nn[nH]n2)cc1` yielded an ED50 in experiment [1] of 5.2 mg/kg. Compared with the last compound, the ED50 is about 130-fold higher.
In experiment [1], `CCCCc1nc(Cl)c(CO)n1Cc1ccc(-c2ccccc2-c2nnn[nH]2)cc1` had an ED50 of 0.65 mg/kg.
`CCCCc1nc2ccnc(O)c2n1Cc1ccc(-c2ccccc2-c2nn[nH]n2)cc1` showed an ED50 in experiment [1] of 0.35 mg/kg. For the same compound, in experiment [2], the IC50 is 0.016 µM.
The like results for `CCCCc1nc2cnnc(O)c2n1Cc1ccc(-c2ccccc2-c2nn[nH]n2)cc1` were, in that order, 0.62 mg/kg and 0.022 µM.
As to `CCCCc1nc2cnnc(O)c2n1Cc1ccc(-c2ccccc2C(=O)O)cc1`, the ED50 in experiment [1] was 6.7 mg/kg.
Regarding `CCCCc1nc2cnn(C)c(=O)c2n1Cc1ccc(-c2ccccc2C(=O)O)cc1`, the 50% effect level in experiment [1] (ED50) was put at a dose of 47 mg/kg. Also, the IC50 in experiment [2] was 10 µM.
As for `CCCCc1nc2cnncc2n1Cc1ccc(-c2ccccc2C(=O)O)cc1`, the ED50 in experiment [1] came out at 5.2 mg/kg. Further, the IC50 in experiment [2] was found to be 10 µM.
In experiment [2], `CCCCc1nc2cnn(Cc3ccc(-c4ccccc4C(=O)OC)cc3)cc-2n1` came in with an IC50 of 100 µM.
With `CCc1nc2c(C)cc(C)nc2n1Cc1ccc(-c2ccccc2-c2nn[nH]n2)cc1`, the 50% effect level in experiment [1] (ED50) was put at a dose of 0.22 mg/kg.
Compound `CCCCc1nc(C(=O)OCC)c(C(=O)OCC)n1Cc1ccc(-c2ccccc2-c2nn[nH]n2)cc1` returned an IC50 in experiment [2] of 0.255 µM.

Values taken from ChEMBL document CHEMBL1151528, “The synthesis of heterosubstituted benzimidazole derivatives with potent angiotensin II antagonist activity” (Bioorg Med Chem Lett, 1993).
